# Test results as given in patent US10336788B2, “Inhibition of cardiac fibrosis in myocardial infarction” (Moerae Matrix, Inc., priority 2014, dated 2019).
# No end group written: not given here.
# Assays:
# C57BL/6 mice = assay: Conscious echocardiography of cardiac function after acute myocardial infarction (permanent LAD ligation)
# Excerpt: Eight to ten week old C57BL/6 mice (25-30 g) were obtained from Charles River (Wilmington, Mass.) and maintained for at least 7 days with free access to standard rodent food and water. Myocardial infarction was induced by permanent ligation of the left anterior descending (LAD) coronary artery as described previously [Maejima Y, Kyoi S, Zhai P, Liu T, Li H, Ivessa A, et al. Mst1 inhibits autophagy by promoting the interaction between Beclin1 and Bcl-2. Nature Medicine. 2013; 19:1478-88; Qian L, Huang Y, Spencer C I, Foley A, Vedantham V, Liu L, et al. In vivo reprogramming of murine cardiac fibroblasts into induced cardiomyocytes. Nature. 2012; 485:593-8]. Post-surgery, mice were immediately treated with lidocaine (6 mg/kg IM) and atropine (0.04-0.10 mg/kg IM) upon surgical closure, followed by lidocaine and atropine every 2-4 hours for the first 24 hours to prevent arrhythmias. Post-anesthesia, mice were given 0.1 mg/kg buprenorphine every 12 hours for the first 48 hours. […] Cardiac function was measured by conscious echocardiography using a Vevo 2100 ultrasound biomicrscopy system (VisualSonics, Inc., Toronto, Canada) at baseline, 1, 7, and 14 days, as previously described [Oakley R H, Ren R, Cruz-Topete D, Bird G S, Myers P H, Boyle M C, et al. Essential role of stress hormone signaling in cardiomyocytes for the prevention of heart disease. Proc Natl Acad Scie USA. 2013; 110:17035-40; Willis M S, Homeister J W, Rosson G B, Annayev Y, Holley D, Holly S P, et al. Functional redundancy of SWI/SNF catalytic subunits in maintaining vascular endothelial cells in the adult heart. Circulation Res. 2012; 111:e111-22; Willis M S, Schisler J C, Li L, Rodriguez J E, Hilliard E G, Charles P C, et al. Cardiac muscle ring finger-1 increases susceptibility to heart failure in vivo. Circulation Res. 2009; 105:80-8].
# Echocardiography was used to follow cardiac function and morphometry prior to the surgical induction of an acute myocardial infarction (AMI) induced by thoracotomy and ligation of the left anterior descending coronary artery in C57BL/6 mice. Cardiac function was then followed at 7 and 14 days post-AMI (FIG. 1A).
# [1] = test system: primary cardiac fibroblasts; assay: LDH release assay in primary cardiac fibroblasts (1% hypoxia or normoxia); format: cell-based, rat
# Protocol: H9C2 is a myoblast cell line derived from rat myocardium obtained from ATCC® (CRL-1446, ATCC, Manassas, Va.) and cultured according to the recommended protocols. Briefly, cells were maintained at 37° C. with 5% CO2 in DMEM supplemented with 10% fetal bovine serum and antibiotics (100 U/ml penicillin, […] streptomycin) and split at a ratio of 1:4 using 0.05% trypsin every 36 hours. […]
# Cells were rinsed in PMS and grown in DMEM (cat. #11966-025, Gibco) for 2 hours prior to initiating hypoxia (simulated ischemia). […] Three different time points were adopted for each of the three cell lines according to the severity of cell death under hypoxia determined by LDH release: for H9C2 cell line: 8 hr; 16 hr; 24 hr; for HL-1 cell line: 4 hr; 8 hr; 12 hr; […]; 32 hr; 48 hr.
# Cell death was first determined using an LDH release assay (cat. #630117, Clontech), according to the manufacturer's instructions. […] Caspase 3/7 activity was next determined using a commercial Caspase 3/7 activity kit (Cat. #G8091, Promega, Madison, Wis. 53711) in a 384 well plate (Cat. #781903, Greiner bio-one) according to the manufacturer's instructions. […] The resulting cell lysates (25 μl, with 0.6 ug total protein) and Caspase-Glo 3/7 Reagent were added to each well in a 1:1 ratio and the luminescence was read (CLARIOstar, BMG LABTECH GmbH). […]
sequence,measurement,setting,value
YARAAARQARAKALARQLGVAA [MMI-0100],LV dilation: LVID; d decreased,"C57BL/6 mice; AMI mice treated with MMI-0100, compared to sham, vs. 40% without MMI-0100",29%
same,LV dilation: LV Volume; d decreased,"C57BL/6 mice; AMI mice treated with MMI-0100, compared to sham, vs. 130% without MMI-0100",88%
same,cardiac function compared to untreated AMI mice,"C57BL/6 mice; AMI mice, 50 μg/kg/day intraperitoneally, first dose 30 minutes after LAD ligation, 1 and 2 weeks after AMI",significantly greater function
same,"effect on cardiac function, MMI-0100 alone","C57BL/6 mice; mice without AMI, daily MMI-0100 intraperitoneally for 14 days",did not have any effect
same,LDH release,"[1]; 16, 32, and 48 hours of hypoxia",significantly enhanced
same,LDH release in normoxic conditions,"[1]; absence of hypoxia, 4 hours (so in the source)",did not enhance LDH release
